Assay results: patent US20260083704A1, “LXR MODULATORS WITH BICYCLIC CORE MOIETY FOR TREATING DYSLIPIDEMIAS” (OrsoBio, Inc., priority 2022, published 2026)

Experiments:
[1] = Pharmacokinetics in mice after single oral dosing (blood/plasma and liver exposure); format: in vivo; conditions: 20 mg/kg single oral dose
Description: The pharmacokinetics of the compounds was assessed in mice after single dosing and oral administrations. Blood/plasma and liver exposure was measured via LC-MS.
The study design was as follows: • Animals: C57/bl6/J (Janvier) males • Diet: standard rodent chow • Dose: 20 mg/kg • Animal handling: animals were withdrawn from food at least 12 h before administration • Design: single dose oral administration, n=3 animals per group • Sacrifice: at stated time point (4, 12 or 24 h) after administration • Bioanalytics: LC-MS of liver and blood/plasma samples

[2] = Short term HFD mouse model: plasma and liver exposure; format: in vivo; conditions: HFD mice, three oral doses of 20 mg/kg over two days, 4 h after final dose
Description: The in vivo transcriptional regulation of several LXR target genes by LXR modulators was assessed in mice.
For this, C57BL/6J were purchased from Elevage Janvier (Rennes, France) at the age of 8 weeks. After an acclimation period of two weeks, animals were prefed on a high fat diet (HFD) (Ssniff Spezialdiäten GmbH, Germany, Surwit EF D12330 mod, Cat. No. E15771-34), with 60 kcal % from fat plus 1% (w/w) extra cholesterol (Sigma-Aldrich, St. Louis, MO) for 5 days. Animals were maintained on this diet during treatment with LXR modulators. The test compounds were formulated in 0.5% hydroxypropylmethylcellulose (HPMC) and administered in three doses (from 1.5 to 20 mg/kg each) by oral gavage according to the following schedule: on day one, animals received treatment in the morning and the evening (ca. 17:00), on day two animals received the final treatment in the morning after a 4 h fast and were sacrificed 4 h thereafter. Animal work was conducted according to the national guidelines for animal care in Germany.
Upon termination, liver was collected, dipped in ice cold PBS for 30 seconds and cut into appropriate pieces. Pieces were snap frozen in liquid nitrogen and stored at −80° C. For the clinical chemistry analysis from plasma, alanine aminotransferase (ALT, IU/mL), cholesterol (CHOL, mg/dL) and triglycerides (TG, mg/dL) were determined using a fully-automated bench top analyzer (Respons®910, DiaSys Greiner GmbH, Flacht, Germany) with system kits provided by the manufacturer.

[3] = target: T1, LXRβ (Homo sapiens, UniProt P55055); experiment: LXR Gal4 reporter transient transfection assay (mammalian two-hybrid, HEK293), LXRβ; format: cell-based; set-up: LXRβ (amino acids 156-461); expressed in transfected cells; host or cells: HEK293; conditions: full length (FL) LXRβ, HEK293; read-out: FL-M2H Gal4β
T1 sequence (P55055 1-460): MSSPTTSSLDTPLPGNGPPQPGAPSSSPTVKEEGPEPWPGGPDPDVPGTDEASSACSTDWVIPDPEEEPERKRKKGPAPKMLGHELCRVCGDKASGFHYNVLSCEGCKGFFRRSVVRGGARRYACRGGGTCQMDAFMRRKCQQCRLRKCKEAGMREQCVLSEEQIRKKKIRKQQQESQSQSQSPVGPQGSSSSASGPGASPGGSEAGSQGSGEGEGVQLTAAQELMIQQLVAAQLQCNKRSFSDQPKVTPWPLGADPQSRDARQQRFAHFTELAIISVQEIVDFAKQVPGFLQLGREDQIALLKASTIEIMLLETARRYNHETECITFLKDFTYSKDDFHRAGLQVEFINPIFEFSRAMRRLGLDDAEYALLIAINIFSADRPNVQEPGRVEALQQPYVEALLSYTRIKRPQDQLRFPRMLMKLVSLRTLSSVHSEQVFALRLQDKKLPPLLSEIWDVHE
Outline: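 Mammalian two-hybrid read-out of LXR–coactivator (SRC1) or corepressor (NCoR) interaction: firefly luciferase under GAL4 response elements, normalised via Renilla co-transfection. LXRα/β full-length or LBD fusions expressed transiently in HEK293; compounds (final DMSO ≤0.2%) given 4 h after transfection for 16 h before lysis.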

Cc1ccc(S(=O)(=O)n2c(-c3cccc(-c4ccc(C(=O)O)cc4)c3)c(-c3ccsc3C#N)c3cc(F)ccc32)cc1 [5/3]
blood/plasma exposure ([1]; time point 4 h): C (100 nM to <300 nM)
liver exposure ([1]; time point 4 h): C (1 μM to ≤3 μM)
liver/blood ratio ([1]; time point 4 h): C (10 to ≤30)
liver exposure 4 h [2]: C (1 μM to ≤10 μM)
liver/plasma ratio 4 h [2]: B (5 to ≤30)
plasma exposure 4 h [2]: D (<100 nM)
EC50 [3]: < 100 nM

Cc1ccc(S(=O)(=O)n2c(-c3cccc(-c4ccc(C(=O)O)cc4Cl)c3)c(-c3ccsc3C#N)c3cc(F)ccc32)cc1 [3/48]
liver exposure ([1]; time point 12 h): A (<300 nM)
blood/plasma exposure (below LLOQ) ([1]; time point 12 h, number is the LLOQ): (1.2 ng/mL)
liver exposure 4 h [2]: C (1 μM to ≤10 μM)
liver/plasma ratio 4 h [2]: C (30 to ≤100)
plasma exposure 4 h [2]: D (<100 nM)
EC50 [3]: < 100 nM

Cc1ccc(S(=O)(=O)n2c(-c3cccc(-c4ccc(C(=O)O)cc4)c3)c(-c3ccsc3C#N)c3cc(F)ccc32)cc1C [23/2]
blood/plasma exposure ([1]; time point 4 h): B (300 nM to ≤1 μM)
liver exposure ([1]; time point 4 h): D (>3 μM)
liver/blood ratio ([1]; time point 4 h): C (10 to ≤30)
liver exposure 4 h [2]: A (<300 nM)
liver/plasma ratio 4 h [2]: A (<5)
plasma exposure 4 h [2]: C (100 nM to <300 nM)
EC50 [3]: < 100 nM
